Measured values from US11717508B2, “Compounds, compositions, and methods for inhibiting bacterial growth” (priority 2016, dated 2023).
Where “and” joins values, the source holds several entries; their conditions need not be identical. Identical values can stand only once. Like-named read-outs stand apart in the source and are kept apart here.

Key:
DosRST regulon = type: cell-based; conditions: 40 μM, 6 days, >2-fold, p<0.05
CDC1551(ΔdosR) mutant = type: cell-based; conditions: for Counts per million (CPM) / Counts per million (CPM) DosR_HC103A1 / Counts per million (CPM) DosR_HC103A2: DosR mutant treated with HC103A; for Counts per million (CPM): replicates 1, 2; for DosR DMSO/DosR HC103A Fold change / log2 Fold change: DosR mutant; for Counts per million (CPM) DosR_HC103A1: replicate 1; for Counts per million (CPM) DosR_HC103A2: replicate 2
[1] = gene MT0169 Rv0l60c PE, HC103A vs DMSO
[2] = gene MT0206 (Rv0196), HC103A compared to DMSO, upregulated
[3] = gene MT0207 (Rv0197), HC103A compared to DMSO, upregulated
[4] = gene MT0273 Rv0260c, HC103A vs DMSO
[5] = gene MT0585 (Rv0559c), HC103A compared to DMSO, upregulated
[6] = gene MT0586 (Rv0560c), HC103A compared to DMSO, upregulated
[7] = gene MT0587 (Rv0561c), HC103A compared to DMSO, upregulated
[8] = gene MT0808 (Rv0784), HC103A compared to DMSO, upregulated
[9] = gene MT0846 Rv0824c desA1, HC103A vs DMSO
[10] = gene MT0908 Rv0885, HC103A vs DMSO
[11] = gene MT0909 Rv0886 fprB, HC103A vs DMSO
[12] = gene MT1214 Rv1177 fdxC, HC103A vs DMSO
[13] = gene MT1297 (Rv1258c), HC103A compared to DMSO, upregulated
[14] = gene MT1430 Rv1386 PE, HC103A vs DMSO
[15] = gene MT1608 (Rv1557, mmpL6), HC103A compared to DMSO, upregulated
[16] = gene MT1690 Rv1652 argC, HC103A vs DMSO
[17] = gene MT1692 Rv1654 argB, HC103A vs DMSO
[18] = gene MT1694 Rv1656 argF, HC103A vs DMSO
[19] = gene MT2466, HC103A compared to DMSO, upregulated
[20] = gene MT2467, HC103A compared to DMSO, upregulated
[21] = gene MT3110 (Rv3026c), HC103A compared to DMSO, upregulated
[22] = gene MT3134 Rv3049c, HC103A vs DMSO
[23] = gene MT3249 (Rv3160c), HC103A compared to DMSO, upregulated
[24] = gene MT3250 (Rv3161c), HC103A compared to DMSO, upregulated
[25] = gene MT3591 (Rv3487c, lipF), HC103A compared to DMSO, upregulated
[26] = gene MT3933 (Rv3825c, pks2), HC103A compared to DMSO, upregulated

O=C(Nc1cccc(O)c1)c1cccc(NC(=O)c2cccs2)c1 [HC103A, N-[3-[(3 hydroxyphenyl)carbamoyl]phenyl]thiophene-2-carboxamide]
genes downregulated by compound that are also downregulated in the CDC1551(ΔdosR) mutant (DosRST regulon): 76 genes
downregulated genes in CDC1551(ΔdosR) mutant treated with compound (CDC1551(ΔdosR) mutant; 40 μM, 6 days, >2-fold, p<0.05): 13 genes
Counts per million (CPM) (CDC1551(ΔdosR) mutant; gene MT0169 Rv0l60c PE): 32.4 CPM and 38.89 CPM
DosR DMSO/DosR HC103A Fold change (CDC1551(ΔdosR) mutant; [1]): 0.4759
log2 Fold change (CDC1551(ΔdosR) mutant; [1]): −1.071
Counts per million (CPM) DosR_HC103A1 (CDC1551(ΔdosR) mutant; gene MT0206 (Rv0196)): 286.4 CPM
Counts per million (CPM) DosR_HC103A2 (CDC1551(ΔdosR) mutant; gene MT0206 (Rv0196)): 309 CPM
DosR DMSO/DosR HC103A Fold change (CDC1551(ΔdosR) mutant; [2]): 6.59
log2 Fold change (CDC1551(ΔdosR) mutant; [2]): 2.72
Counts per million (CPM) DosR_HC103A1 (CDC1551(ΔdosR) mutant; gene MT0207 (Rv0197)): 509.4 CPM
Counts per million (CPM) DosR_HC103A2 (CDC1551(ΔdosR) mutant; gene MT0207 (Rv0197)): 528.3 CPM
DosR DMSO/DosR HC103A Fold change (CDC1551(ΔdosR) mutant; [3]): 4.134
log2 Fold change (CDC1551(ΔdosR) mutant; [3]): 2.047
Counts per million (CPM) (CDC1551(ΔdosR) mutant; gene MT0273 Rv0260c): 19.06 CPM and 17.95 CPM
DosR DMSO/DosR HC103A Fold change (CDC1551(ΔdosR) mutant; [4]): 0.4609
log2 Fold change (CDC1551(ΔdosR) mutant; [4]): −1.117
Counts per million (CPM) DosR_HC103A1 (CDC1551(ΔdosR) mutant; gene MT0585 (Rv0559c)): 4,246.95 CPM
Counts per million (CPM) DosR_HC103A2 (CDC1551(ΔdosR) mutant; gene MT0585 (Rv0559c)): 5,318.58 CPM
DosR DMSO/DosR HC103A Fold change (CDC1551(ΔdosR) mutant; [5]): 5.18
log2 Fold change (CDC1551(ΔdosR) mutant; [5]): 2.373
Counts per million (CPM) DosR_HC103A1 (CDC1551(ΔdosR) mutant; gene MT0586 (Rv0560c)): 8,065.19 CPM
DosR DMSO/DosR HC103A Fold change (CDC1551(ΔdosR) mutant; [6]): 384.9
log2 Fold change (CDC1551(ΔdosR) mutant; [6]): 8.588
Counts per million (CPM) DosR_HC103A1 (CDC1551(ΔdosR) mutant; gene MT0587 (Rv0561c)): 66.91 CPM
Counts per million (CPM) DosR_HC103A2 (CDC1551(ΔdosR) mutant; gene MT0587 (Rv0561c)): 74.86 CPM
DosR DMSO/DosR HC103A Fold change (CDC1551(ΔdosR) mutant; [7]): 2.044
log2 Fold change (CDC1551(ΔdosR) mutant; [7]): 1.031
Counts per million (CPM) DosR_HC103A1 (CDC1551(ΔdosR) mutant; gene MT0808 (Rv0784)): 242.1 CPM
Counts per million (CPM) DosR_HC103A2 (CDC1551(ΔdosR) mutant; gene MT0808 (Rv0784)): 193.9 CPM
DosR DMSO/DosR HC103A Fold change (CDC1551(ΔdosR) mutant; [8]): 2.445
log2 Fold change (CDC1551(ΔdosR) mutant; [8]): 1.29
Counts per million (CPM) (CDC1551(ΔdosR) mutant; gene MT0846 Rv0824c desA1): 2,264.39 CPM and 5,375.06 CPM
DosR DMSO/DosR HC103A Fold change (CDC1551(ΔdosR) mutant; [9]): 0.4703
log2 Fold change (CDC1551(ΔdosR) mutant; [9]): −1.088
Counts per million (CPM) (CDC1551(ΔdosR) mutant; gene MT0908 Rv0885): 2,165.30 CPM and 1,401.92 CPM
DosR DMSO/DosR HC103A Fold change (CDC1551(ΔdosR) mutant; [10]): 0.3709
log2 Fold change (CDC1551(ΔdosR) mutant; [10]): −1.431
Counts per million (CPM) (CDC1551(ΔdosR) mutant; gene MT0909 Rv0886 fprB): 412.7 CPM and 231.2 CPM
DosR DMSO/DosR HC103A Fold change (CDC1551(ΔdosR) mutant; [11]): 0.453
log2 Fold change (CDC1551(ΔdosR) mutant; [11]): −1.142
Counts per million (CPM) (CDC1551(ΔdosR) mutant; gene MT1214 Rv1177 fdxC): 704.9 CPM and 1,378.70 CPM
DosR DMSO/DosR HC103A Fold change (CDC1551(ΔdosR) mutant; [12]): 0.4926
log2 Fold change (CDC1551(ΔdosR) mutant; [12]): −1.021
Counts per million (CPM) DosR_HC103A1 (CDC1551(ΔdosR) mutant; gene MT1297 (Rv1258c)): 106.4 CPM
Counts per million (CPM) DosR_HC103A2 (CDC1551(ΔdosR) mutant; gene MT1297 (Rv1258c)): 137 CPM
DosR DMSO/DosR HC103A Fold change (CDC1551(ΔdosR) mutant; [13]): 2.269
log2 Fold change (CDC1551(ΔdosR) mutant; [13]): 1.182
Counts per million (CPM) (CDC1551(ΔdosR) mutant; gene MT1430 Rv1386 PE): 63.3 CPM and 54.49 CPM
DosR DMSO/DosR HC103A Fold change (CDC1551(ΔdosR) mutant; [14]): 0.4765
log2 Fold change (CDC1551(ΔdosR) mutant; [14]): −1.069
Counts per million (CPM) DosR_HC103A1 (CDC1551(ΔdosR) mutant; gene MT1608 (Rv1557, mmpL6)): 351.7 CPM
Counts per million (CPM) DosR_HC103A2 (CDC1551(ΔdosR) mutant; gene MT1608 (Rv1557, mmpL6)): 540 CPM
DosR DMSO/DosR HC103A Fold change (CDC1551(ΔdosR) mutant; [15]): 6.869
log2 Fold change (CDC1551(ΔdosR) mutant; [15]): 2.78
Counts per million (CPM) (CDC1551(ΔdosR) mutant; gene MT1690 Rv1652 argC): 130.6 CPM and 56.84 CPM
DosR DMSO/DosR HC103A Fold change (CDC1551(ΔdosR) mutant; [16]): 0.4979
log2 Fold change (CDC1551(ΔdosR) mutant; [16]): −1.006
Counts per million (CPM) (CDC1551(ΔdosR) mutant; gene MT1691): 81.47 CPM and 33.33 CPM
DosR DMSO/DosR HC103A Fold change (CDC1551(ΔdosR) mutant; gene MT1691, HC103A vs DMSO): 0.4846
log2 Fold change (CDC1551(ΔdosR) mutant; gene MT1691, HC103A vs DMSO): −1.045
Counts per million (CPM) (CDC1551(ΔdosR) mutant; gene MT1692 Rv1654 argB): 128.8 CPM and 55.27 CPM
DosR DMSO/DosR HC103A Fold change (CDC1551(ΔdosR) mutant; [17]): 0.4965
log2 Fold change (CDC1551(ΔdosR) mutant; [17]): −1.01
Counts per million (CPM) (CDC1551(ΔdosR) mutant; gene MT1694 Rv1656 argF): 79.75 CPM and 39.53 CPM
DosR DMSO/DosR HC103A Fold change (CDC1551(ΔdosR) mutant; [18]): 0.4259
log2 Fold change (CDC1551(ΔdosR) mutant; [18]): −1.231
Counts per million (CPM) DosR_HC103A1 (CDC1551(ΔdosR) mutant; gene MT2466): 356.4 CPM
Counts per million (CPM) DosR_HC103A2 (CDC1551(ΔdosR) mutant; gene MT2466): 182.6 CPM
DosR DMSO/DosR HC103A Fold change (CDC1551(ΔdosR) mutant; [19]): 2.643
log2 Fold change (CDC1551(ΔdosR) mutant; [19]): 1.402
Counts per million (CPM) DosR_HC103A1 (CDC1551(ΔdosR) mutant; gene MT2467): 57.69 CPM
Counts per million (CPM) DosR_HC103A2 (CDC1551(ΔdosR) mutant; gene MT2467): 12.39 CPM
DosR DMSO/DosR HC103A Fold change (CDC1551(ΔdosR) mutant; [20]): 2.468
log2 Fold change (CDC1551(ΔdosR) mutant; [20]): 1.303
Counts per million (CPM) DosR_HC103A1 (CDC1551(ΔdosR) mutant; gene MT3110 (Rv3026c)): 44.13 CPM
Counts per million (CPM) DosR_HC103A2 (CDC1551(ΔdosR) mutant; gene MT3110 (Rv3026c)): 30.13 CPM
DosR DMSO/DosR HC103A Fold change (CDC1551(ΔdosR) mutant; [21]): 2.016
log2 Fold change (CDC1551(ΔdosR) mutant; [21]): 1.012
Counts per million (CPM) (CDC1551(ΔdosR) mutant; gene MT3134 Rv3049c): 1,202.50 CPM and 892.7 CPM
DosR DMSO/DosR HC103A Fold change (CDC1551(ΔdosR) mutant; [22]): 0.4226
log2 Fold change (CDC1551(ΔdosR) mutant; [22]): −1.243
Counts per million (CPM) DosR_HC103A1 (CDC1551(ΔdosR) mutant; gene MT3249 (Rv3160c)): 172.6 CPM
DosR DMSO/DosR HC103A Fold change (CDC1551(ΔdosR) mutant; [23]): 2.261
log2 Fold change (CDC1551(ΔdosR) mutant; [23]): 1.177
Counts per million (CPM) DosR_HC103A1 (CDC1551(ΔdosR) mutant; gene MT3250 (Rv3161c)): 561.8 CPM
Counts per million (CPM) DosR_HC103A2 (CDC1551(ΔdosR) mutant; gene MT3250 (Rv3161c)): 555 CPM
DosR DMSO/DosR HC103A Fold change (CDC1551(ΔdosR) mutant; [24]): 2.364
log2 Fold change (CDC1551(ΔdosR) mutant; [24]): 1.241
Counts per million (CPM) (CDC1551(ΔdosR) mutant; gene MT3573.12): 281 CPM and 281.6 CPM
DosR DMSO/DosR HC103A Fold change (CDC1551(ΔdosR) mutant; gene MT3573.12, HC103A vs DMSO): 0.4221
log2 Fold change (CDC1551(ΔdosR) mutant; gene MT3573.12, HC103A vs DMSO): −1.244
Counts per million (CPM) DosR_HC103A1 (CDC1551(ΔdosR) mutant; gene MT3591 (Rv3487c, lipF)): 185.8 CPM
Counts per million (CPM) DosR_HC103A2 (CDC1551(ΔdosR) mutant; gene MT3591 (Rv3487c, lipF)): 63.03 CPM
DosR DMSO/DosR HC103A Fold change (CDC1551(ΔdosR) mutant; [25]): 2.033
log2 Fold change (CDC1551(ΔdosR) mutant; [25]): 1.023
Counts per million (CPM) DosR_HC103A1 (CDC1551(ΔdosR) mutant; gene MT3933 (Rv3825c, pks2)): 917.6 CPM
Counts per million (CPM) DosR_HC103A2 (CDC1551(ΔdosR) mutant; gene MT3933 (Rv3825c, pks2)): 561 CPM
DosR DMSO/DosR HC103A Fold change (CDC1551(ΔdosR) mutant; [26]): 2.341
log2 Fold change (CDC1551(ΔdosR) mutant; [26]): 1.227
